Data reported in patent publication US20020045242A1, “Culture medium for culturing Lactobacillus clearans, and method for preserving said strain” (priority 1999, published 2002).
Like-named read-outs stand apart in the source and are kept apart here.

Assays:
[1] = system: Lactobacillus clearans; test: Viability of Lactobacillus clearans during storage with preservatives
Description: (§1) Here, alfalfa juice and clover juice refer to liquids which are made by adding 10-fold water to alfalfa grass or clover grass to make a juice, these being used as alfalfa juice or clover juice, respectively. The amounts in which the preservatives are added are expressed in terms of the weight ratio of the preservative relative to the weight of the viable cells. […] The viability of Lactobacillus clearans is expressed as a percentage, where 100% is the viable cell count immediately after lyophilization. The viability during lyophilization is indicated as concentric circles when the viability is more than 90%, as two concentric circles to one circle when the rate is 80 to 90%, as one circle when the rate is 60 to 80%, as a square when the rate is 40 to 60%, as a triangle when the rate is 20 to 40%, and as an “x” when the rate is less than 20%.
(§2) Here, the amounts in which the preservatives were added are expressed as the weight ratio of the preservative relative to the viable cell weight. […] The viability of Lactobacillus clearans during lyophilization is indicated as two concentric circles when the viability is more than 90%, as two concentric circles to one circle when the rate is 80 to 90%, as one circle when the rate is 60 to 80%, as a square when the rate is 40 to 60%, as a triangle when the rate is 20 to 40%, and as an “x” when the rate is less than 20%.

[2] = system: Lactobacillus clearans; test: Changes in titer of Lactobacillus clearans during storage with preservatives; type: cell-based
Description: as §1, §2

[3] = system: Lactobacillus clearans; test: Viability of Lactobacillus clearans during lyophilization with preservatives; type: cell-based; settings: viability class
Description: as §1, §2

[4] = system: Lactobacillus clearans; test: Effect of substances added during subculture on titer of Lactobacillus clearans; type: cell-based; settings: added to medium during subculture
From the text: The most important amino acids constituting the bacterial cells or enzymes were studied by type for their effects on Lactobacillus clearans.
We looked for substances capable of such enhancement or potentiation and conducted extensive- study.

[5] = Lactobacillus clearans, 3 months
[6] = Lactobacillus clearans, 6 months
[7] = Lactobacillus clearans, 12 months
[8] = protein-amino acid-based preservative
[9] = protein-amino acid-based preservative used alone
[10] = saccharides and animal-based complex preservative
[11] = saccharides and animal-based protein·vitamin·mineral complex preservative used alone

NCCCC(=O)O
Changes over time during storage, Viability (%) 3 months [1, 5]: 65% | Changes over time during storage, Viability (%) 6 months [1, 6]: 45% | Changes over time during storage, Viability (%) 12 months [1, 7]: 25% | Changes over time during storage, Changes in titer [2, 8]: ± | Results during lyophilization [3, 9]: □ (a square when the rate is 40 to 60%)

C[C@H](N)C(=O)O [Alanine]
Changes over time during storage, Viability (%) 3 months [1, 5]: 30% | Changes over time during storage, Viability (%) 6 months [1, 6]: 15% | Changes over time during storage, Viability (%) 12 months [1, 7]: 5% | Changes over time during storage, Changes in titer [2, 8]: − | Results during lyophilization [3, 9]: Δ (a triangle when the rate is 20 to 40%)

N=C(N)NCCC[C@H](N)C(=O)O [Arginine]
Changes over time during storage, Viability (%) 3 months [1, 5]: 20% | Changes over time during storage, Viability (%) 6 months [1, 6]: 5% | Changes over time during storage, Viability (%) 12 months [1, 7]: 2% | Changes over time during storage, Changes in titer [2]: − | Results during lyophilization [3, 9]: Δ (a triangle when the rate is 20 to 40%)

NC(=O)C[C@H](N)C(=O)O [Asparagine]
Changes over time during storage, Viability (%) 3 months [1, 5]: 55% | Changes over time during storage, Viability (%) 6 months [1, 6]: 30% | Changes over time during storage, Viability (%) 12 months [1, 7]: 15% | Changes over time during storage, Changes in titer [2, 8]: ± | Results during lyophilization [3, 9]: □ (a square when the rate is 40 to 60%)

N[C@@H](CS)C(=O)O [Cysteine]
effect on titer of Lactobacillus clearans [4]: extremely effective | Changes over time during storage, Viability (%) 3 months [1, 5]: 65% | Changes over time during storage, Viability (%) 6 months [1, 6]: 45% | Changes over time during storage, Viability (%) 12 months [1, 7]: 30% | Changes over time during storage, Changes in titer [2, 8]: + | Results during lyophilization [3, 9]: ◯ (one circle when the rate is 60 to 80%)

N[C@@H](CSSC[C@H](N)C(=O)O)C(=O)O [Cystine]
effect on titer of Lactobacillus clearans [4]: extremely effective | Changes over time during storage, Viability (%) 3 months [1, 5]: 70% | Changes over time during storage, Viability (%) 6 months [1, 6]: 50% | Changes over time during storage, Viability (%) 12 months [1, 7]: 35% | Changes over time during storage, Changes in titer [2, 8]: + | Results during lyophilization [3, 9]: ◯ (one circle when the rate is 60 to 80%)

NCC(=O)O [Glycine]
Changes over time during storage, Viability (%) 3 months [1, 5]: 25% | Changes over time during storage, Viability (%) 6 months [1, 6]: 10% | Changes over time during storage, Viability (%) 12 months [1, 7]: 2% | Changes over time during storage, Changes in titer [2, 8]: − | Results during lyophilization [3, 9]: Δ (a triangle when the rate is 20 to 40%)

OC[C@H]1O[C@@H](O[C@H]2[C@H](O)[C@@H](O)C(O)O[C@@H]2CO)[C@H](O)[C@@H](O)[C@H]1O (some centres unmarked) [Lactose]
Changes over time during storage, Viability (%) 3 months [1, 5]: 70% | Changes over time during storage, Viability (%) 6 months [1, 6]: 50% | Changes over time during storage, Viability (%) 12 months [1, 7]: 20% | Changes over time during storage, Changes in titer [2, 10]: ± | Results during lyophilization [3, 11]: □ (a square when the rate is 40 to 60%)

CC(C)C[C@H](N)C(=O)O [Leucine]
Changes over time during storage, Viability (%) 3 months [1, 5]: 25% | Changes over time during storage, Viability (%) 6 months [1, 6]: 10% | Changes over time during storage, Viability (%) 12 months [1, 7]: 3% | Changes over time during storage, Changes in titer [2, 8]: − | Results during lyophilization [3, 9]: Δ (a triangle when the rate is 20 to 40%)

N[C@@H](CCC(=O)[O-])C(=O)[O-].[Na+].[Na+] [Sodium glutamate]
Changes over time during storage, Viability (%) 3 months ([1]; protein-amino acid-based preservative, 100% = viable cell count immediately after lyophilization, 3 months): 60% | Changes over time during storage, Viability (%) 6 months ([1]; protein-amino acid-based preservative, 100% = viable cell count immediately after lyophilization, 6 months): 40% | Changes over time during storage, Viability (%) 12 months ([1]; protein-amino acid-based preservative, 100% = viable cell count immediately after lyophilization, 12 months): 20% | Changes over time during storage, Changes in titer [2, 8]: ± | Results during lyophilization [3, 9]: □ (a square when the rate is 40 to 60%)

OC[C@H]1O[C@@](CO)(O[C@H]2O[C@H](CO)[C@@H](O)[C@H](O)[C@H]2O)[C@@H](O)[C@@H]1O [Sucrose]
Changes over time during storage, Viability (%) 3 months [1, 5]: 30% | Changes over time during storage, Viability (%) 6 months [1, 6]: 15% | Changes over time during storage, Viability (%) 12 months [1, 7]: 5% | Changes over time during storage, Changes in titer [2, 10]: − | Results during lyophilization [3, 11]: Δ (a triangle when the rate is 20 to 40%)

OC[C@H]1O[C@H](O[C@H]2O[C@H](CO)[C@@H](O)[C@H](O)[C@H]2O)[C@H](O)[C@@H](O)[C@@H]1O [Trehalose]
Changes over time during storage, Viability (%) 3 months ([1]; saccharides and animal-based complex preservative, 100% = viable cell count immediately after lyophilization, 3 months): 75% | Changes over time during storage, Viability (%) 6 months ([1]; saccharides and animal-based complex preservative, 100% = viable cell count immediately after lyophilization, 6 months): 50% | Changes over time during storage, Viability (%) 12 months ([1]; saccharides and animal-based complex preservative, 100% = viable cell count immediately after lyophilization, 12 months): 30% | Changes over time during storage, Changes in titer [2, 10]: + | Results during lyophilization [3, 11]: ◯ (one circle when the rate is 60 to 80%)

N[C@@H](Cc1c[nH]c2ccccc12)C(=O)O [Tryptophan]
Changes over time during storage, Viability (%) 3 months [1, 5]: 25% | Changes over time during storage, Viability (%) 6 months [1, 6]: 10% | Changes over time during storage, Viability (%) 12 months [1, 7]: 4% | Changes over time during storage, Changes in titer [2, 8]: − | Results during lyophilization [3, 9]: Δ (a triangle when the rate is 20 to 40%)

O=C1O[C@H]([C@@H](O)CO)C(O)=C1O [Vitamin C]
effect on titer of Lactobacillus clearans [4]: effective

N[C@@H](CC(=O)O)C(=O)O [aspartic acid]
effect on titer of Lactobacillus clearans [4]: extremely effective

Nc1nc2ncc(CNc3ccc(C(=O)N[C@@H](CCC(=O)O)C(=O)O)cc3)nc2c(=O)[nH]1 [folic acid]
effect on titer of Lactobacillus clearans [4]: effective

N[C@@H](CCC(=O)O)C(=O)O [glutamic acid]
effect on titer of Lactobacillus clearans [4]: extremely effective

[Mg+2] [magnesium]
effect on titer of Lactobacillus clearans [4]: effective

[Mn+2] [manganese]
effect on titer of Lactobacillus clearans [4]: effective

[Mo] [molybdenum]
effect on titer of Lactobacillus clearans [4]: effective

NC(=O)c1cccnc1 [nicotinamide]
effect on titer of Lactobacillus clearans [4]: effective

O=C(O)[C@@H]1CCCN1 [proline]
effect on titer of Lactobacillus clearans [4]: a rapid decrease in titer

[Zn] [zinc]
effect on titer of Lactobacillus clearans [4]: effective

Gelatin
Changes over time during storage, Viability (%) 3 months [1]: 10% | Changes over time during storage, Viability (%) 6 months [1]: 3% | Changes over time during storage, Viability (%) 12 months [1]: 0% | Results during lyophilization [3, 9]: X (an “x” when the rate is less than 20%)

Potato starch
Changes over time during storage, Viability (%) 3 months [1]: 30% | Changes over time during storage, Viability (%) 6 months [1]: 20% | Changes over time during storage, Viability (%) 12 months [1]: 10%

Soluble starch
Changes over time during storage, Viability (%) 3 months [1]: 60% | Changes over time during storage, Viability (%) 6 months [1]: 40% | Changes over time during storage, Viability (%) 12 months [1]: 15%

Vitamin B12
effect on titer of Lactobacillus clearans [4]: effective

Vitamin E
effect on titer of Lactobacillus clearans [4]: effective

Yeast extract
Changes over time during storage, Viability (%) 3 months [1]: 50% | Changes over time during storage, Viability (%) 6 months [1]: 30% | Changes over time during storage, Viability (%) 12 months [1]: 20%

calcium pantothenate
effect on titer of Lactobacillus clearans [4]: effective

B1: Ovalbumin: protein-based preservative (protein, UniProt P01012 2-386, looked up)
Ovalbumin: GSIGAASMEFCFDVFKELKVHHANENIFYCPIAIMSALAMVYLGAKDSTRTQINKVVRFDKLPGFGDSIEAQCGTSVNVHSSLRDILNQITKPNDVYSFSLASRLYAEERYPILPEYLQCVKELYRGGLEPINFQTAADQARELINSWVESQTNGIIRNVLQPSSVDSQTAMVLVNAIVFKGLWEKAFKDEDTQAMPFRVTEQESKPVQMMYQIGLFRVASMASEKMKILELPFASGTMSMLVLLPDEVSGLEQLESIINFEKLTEWTSSNVMEERKIKVYLPRMKMEEKYNLTSVLMAMGITDVFSSSANLSGISSAESLKISQAVHAAHAEINEAGREVVGSAEAGVDAASVSEEFRADHPFLFCIKHIATNAVLFFGRCVSP
Changes over time during storage, Viability (%) 3 months [1]: 70% | Changes over time during storage, Viability (%) 6 months [1]: 50% | Changes over time during storage, Viability (%) 12 months [1]: 30% | Changes over time during storage, Changes in titer [2, 8]: + | Results during lyophilization [3, 9]: ◯ (one circle when the rate is 60 to 80%)
